Experimental data published in patent US20250352518A1, “A BENZIMIDAZOLE COMPOUND WITH ANTIHELMINTHIC ACTIVITY FOR USE IN REVERSING, ARRESTING OR SLOWING DOWN CELLULAR AGEING IN A VERTEBRATE SUBJECT” (RAVAN BIO LIMITED, priority 2022, published 2025).

Experiments:
[1] = tested on: post-confluent NHEK cells; experiment: Growth of re-cultured post-confluent (cell-cell contact growth arrested) NHEK's; assay type: cell-based, human; conditions: for continued growth of post-confluent NHEK's (phase contrast): passage 4, 24 hours with compound, 10 μM Y27632, 500-1250 nM Tadalafil, 50-200 nM Fenbendazole; for concentration causing optimal cell growth: post-confluent NHEK
Description: Neonatal human epidermal foreskin keratinocytes (NHEKs) were used to test the ability of compounds to reverse, arrest or slow down cellular ageing. These cells typically undergo approximately 35 cell divisions before the Hayflick limit is reached but they can be induced to undergo premature senescence and, what has been understood to be, irreversible growth arrest earlier than this by induction of cell-cell contact growth inhibition when cultured at high cell density/to confluence (Poumay & Pittelkow 1995 J Inv Dermatol 104, p 271-276). The inventors were thus inspired to culture post-confluent cells and assess the effect of test compounds on the growth, telomere loss and secretion of inflammatory factors by such cells. An experimental schematic is provided as FIG. 1. 1.1 Culture of Early Passage NHEK's in the Presence and Absence of y27632 Pooled donor neonatal NHEK's (Cat No C-12005, Lot No 456Z001.1, PromoCell GmBH), serum-free PromoCell Keratinocyte Growth Medium 2 (KSFM, Cat No C20011. Lot No 472M197), CaCl2) (Lot No 471055) and Supplements (Lot No 472M013) were all obtained from PromoCell GmBH. NHEK's were thawed directly into a single T75 in 20 mls of complete KSFM (CaCl2 & Supplements), incubated over night at 37° C., 5% CO2 and the medium changed the following day. After 3 days the cells were 80% confluent and were passaged (Ist) using 0.05% Trypsin+EDTA (Gibco) into ×2 T75 flasks at a split ratio of 1:4. After overnight incubation at 37° C., 5% CO2, the cultures were at 30% confluence and 10 μM Y27632 (Cat No 688000, Lot No 2884132, Merck) was added to one of the flasks. […] Fresh T75 flasks were seeded with 5.0×10^5 cells from each in their respective medium. […] Fresh T75 flasks were seeded, as described previously, and also 1.2×10^4 NHEK cells/well were seeded into 24 well plates, incubated overnight to allow cell attachment, and the following subsequently added to separate wells: • A. NHEK in complete KSFM • B. NHEK+Y27632 in complete KSFM • C. Y27632 treated NHEK transferred to complete KSFM (Y27632 Removed) • D. NHEK transferred to complete KSFM+500 nM Tadalafil • E. NHEK transferred to complete KSFM+750 nM Tadalafil • F. NHEK transferred to complete KSFM+1000 nM Tadalafil • G. NHEK transferred to complete KSFM+1250 nM Tadalafil • H. NHEK transferred to complete KSFM+50 nM Fenbendazole • I. NHEK transferred to complete KSFM+100 nM Fenbendazole • J. NHEK transferred to complete KSFM+150 nM Fenbendazole • K. NHEK transferred to complete KSFM+200 nM Fenbendazole All drugs were added 24 hours after seeding. […] FIG. 2B is an example of the appearance of post-confluent cells.
Post-confluent NHEK's (FIG. 2B) were subsequently passaged (4th) into a fresh 24 well plate using a split ratio of 1 in 4 in 2 mls of fresh complete KSFM. These were left overnight to attach and the same compounds added (as shown in A-K of 1.1) followed by incubation for a further 24 hours and subsequently photographed.

Interleukin 6 (IL-6) = experiment: IL-6 secretion by NHEK's (Human IL-6 SimpleStep ELISA); assay type: cell-based; conditions: post-confluent NHEKs, 4 days post-confluence, FIG. 9b; Tadalafil at 500 nM
Description: Aliquots of 60,000 NHEK cells were seeded into separate T25 flasks in complete KSFM and incubated at 5% CO2, 37° C. for 3 days until they reached 20% confluence. Fenbendazole and Tadalafil were then added to each of these as either single agents, or in combination, and the cells incubated for a further 3 days at 5% CO2, 37° C. until the cells reached >50% confluence. A sample of medium was then taken for analysis of IL-6 levels using a Human IL-6 SimpleStep ELISA Kit (AbCam Cat No ab178013) according to the manufacturer's instructions (FIG. 9a). Both medium and drugs were replaced, the cells incubated for a further 3 days until confluent, medium and drugs were changed and the incubation continued for 4 days post-confluence when final medium samples were taken for analysis of IL6 levels (FIG. 9b). Each data point was repeated in triplicate and OD 490 nm readings were determined with a Dynex MRX Plate reader.

[2] = tested on: post-confluent NHEK cells; experiment: Growth of re-cultured post-confluent (cell-cell contact growth arrested) NHEK's; assay type: cell-based, human
[3] = tested on: neonatal human epidermal foreskin keratinocytes (NHEKs); experiment: Culture of early passage NHEK's in the presence and absence of Y27632 (live cell counts); assay type: cell-based
Description: Neonatal human epidermal foreskin keratinocytes (NHEKs) were used to test the ability of compounds to reverse, arrest or slow down cellular ageing. These cells typically undergo approximately 35 cell divisions before the Hayflick limit is reached but they can be induced to undergo premature senescence and, what has been understood to be, irreversible growth arrest earlier than this by induction of cell-cell contact growth inhibition when cultured at high cell density/to confluence (Poumay & Pittelkow 1995 J Inv Dermatol 104, p 271-276). The inventors were thus inspired to culture post-confluent cells and assess the effect of test compounds on the growth, telomere loss and secretion of inflammatory factors by such cells. […] Lot No 472M197), CaCl2) (Lot No 471055) and Supplements (Lot No 472M013) were all obtained from PromoCell GmBH. NHEK's were thawed directly into a single T75 in 20 mls of complete KSFM (CaCl2 & Supplements), incubated over night at 37° C., 5% CO2 and the medium changed the following day. […] After a further 48 hours both flasks were 60% confluent and phase contrast images were recorded (Zeiss […]). […] The inventors assessed that these cells had stopped growing due to cell-cell contact inhibition and had become post-confluent as defined herein. […]

14th passage NHEK cells = experiment: Toxic effects on late-passage (passage 14) NHEK's; assay type: cell-based, human; conditions: 6 days, 10 μM Y27632 or 500 nM Tadalafil+100 nM Fenbendazole
Description: NHEK's were maintained in complete KSFM for 55 days with serial passage routinely carried out at 80% confluence in T75 flasks, as previously described in 1.1. These cells were not grown to be post-confluent and the cells were therefore not used to assess the ability of test compounds to reverse, arrest or slow down cellular ageing. Instead, the cells were used to assess whether or not Y27632, fenbendazole or tadalafil has any toxic effects. After the 55 days, a total of 50,000 cells/well of 14th passage NHEK cells were seeded into 6 well plates and, after 24 hours, Y27632, and a mixture of Tadalafil and Fenbendazole were added.

Structure (SMILES) | continued growth of post-confluent NHEK's (phase contrast) ([1]; FIG. 3) | concentration causing optimal cell growth ([1]; cultured for a further 24 hrs, FIG. 4) | concentration causing optimal cell growth ([1]; passage 4, 24 hours, FIG. 3) | secretion of IL-6 compared to DMSO control (Interleukin 6 (IL-6)) | number of viable cells (Via-1 Assay) following withdrawal of drug ([2]; treatment P3-P5 only, withdrawn following passage 6, 5 days, FIG. 5) | number of viable cells (Via-1 Assay) ([2]; treatment continued for passages P3-P6, 5 days after passage 6, FIG. 5) | total live cell counts ([3]; KSFM+10 μM Y27632, 2nd passage at 80% confluence) | cell counts ([3]; KSFM+10 μM Y27632, 3rd passage, 72 hours after seeding 5.0×10^5 cells) | proliferation and cell death of late passage cells (14th passage NHEK cells)
CN1CC(=O)N2[C@H](c3ccc4c(c3)OCO4)c3[nH]c4ccccc4c3C[C@@H]2C1=O [Tadalafil, pyrazino[1′,2′: 1,6]pyrido[3,4-b]indole-1,4-dione, 6-(1,3-benzodioxol-5-yl)-2,3,6,7,12,12a-hexahydro-2-methyl-, (6R,12aR)] | all exhibited cell growth | about 1000 nM | 750 to 1000 nM | least effective | 1.3×10^4 cells/ml | 4.3×10^4 cells/ml | – | – | –
C[C@@H](N)[C@H]1CC[C@H](C(=O)Nc2ccncc2)CC1 [Y27632] | no, or minimal cell rejuvenation | – | – | – | – | – | 5.2×10^5 cells/ml | 5.3×10^5 cells/ml | no proliferation and extensive cell death
